Source: US5047228A, “Nonionic 5-C-substituted 2,4,6-triiodoisophthalic acid derivatives” (Schering Aktiengesellschaft, priority 1980, dated 1991)

How the values were obtained:
[1] = Stability in heat sterilization; assay type: physicochemical
Text: The present invention comprises nonionic X-ray contrast media based on the opacifying compounds of this invention with novel basic structures. These novel opacifying compounds are distinguished by a number of advantages. They are derived from triiodinated aromatic basic components which themselves are hydrophilic and nontoxic. […] They are also distinguished by a high chemical stability, especially also under the conditions of heat sterilization.
Solutions of the compounds of this invention can thus also be sterilized in the usual way by heating to 120° C. at a physiological pH value. The solutions have a low osmotic pressure even at high iodine concentrations, compared with the state of the art ionic X-ray contrast media. This is especially a prerequisite for a good local compatibility.

[2] = Distribution coefficient butanol/buffer pH 7.6; assay type: physicochemical
Text: The distribution coefficient of a compound permits ascertainment of its hydrophilicity and thus its compatibility; the lower the value of the distribution coefficient, the higher the compatibility of the compound tested.

[3] = system: dog erythrocytes; test: Erythrocyte damage (echinocyte formation in dog erythrocytes); assay type: cell-based; conditions: effect of metrizamide set at 10 as a standard, smaller number = higher compatibility
Protocol: The deformation of erythrocytes (erythrocyte damage) due to X-ray contrast media can be taken as a measure for the membrane-damaging effect of the compound. In this instance, the formation of echinocytes was measured in dog erythrocytes, setting the effect of metrizamide at 10 as a standard. A smaller number signifies a correspondingly higher compatibility.

[4] = LD50 mouse (i.v.); conditions: in vivo, iv, injection rate 2 ml/min, concentration 300 mg/ml, observation period 24 h
Protocol: (§1) *Injection rate 2 ml/min; concentration 300 mg/ml; observation period 24

[5] = LD50 rat (i.v.); conditions: in vivo, iv, injection rate 2 ml/min, concentration 300 mg/ml, observation period 24 h
Protocol: as §1

[6] = Iodine content; assay type: physicochemical

SMILES | Stable in Heat Sterilization [1] | Distribution Coefficient Butanol/Buffer pH 7.6 [2] | Erythrocyte Damage [3] | LD50 at 24 h [4] | LD50 at 24 h [5] | Iodine Content [6]
CC(=O)Nc1c(I)c(C(=O)N[C@H]2C(O)O[C@H](CO)[C@@H](O)[C@@H]2O)c(I)c(N(C)C(C)=O)c1I (stereo partly drawn) [A, reference compound] | No | 0.259 | 10 | 12000 mg/kg | 11000 mg/kg | 48%
CN(CC(O)CO)C(=O)c1c(I)c(C(=O)N(C)CC(O)CO)c(I)c(C(=O)N(C)CC(O)CO)c1I (stereo not drawn) [B, 2,4,6-triiodobenzene-1,3,5-tricarboxylic acid tris(2,3-dihydroxypropyl-N-methyl)triamide] | Yes | 0.064 | 2.1 | 16000 mg/kg | 11000 mg/kg | 45%
O=C(c1c(I)c(C(=O)N(CCO)CCO)c(I)c(C(=O)N(CCO)CCO)c1I)N(CCO)CCO [C, 2,4,6-triiodobenzene-1,3,5-tricarboxylic acid tris(bis-2-hydroxyethyl)triamide] | Yes | 0.131 | 1.8 | – | 12000 mg/kg | 45%
CN(CC(O)CO)C(=O)c1c(I)c(C(N)=O)c(I)c(C(=O)N(C)CC(O)CO)c1I (stereo not drawn) [D, 2,4,6-triiodobenzene-1,3,5-tricarboxylic acid bis(2,3-dihydroxypropyl-N-methyl)triamide] | Yes | 0.074 | 4.2 | – | – | 50%
CN(CC(O)C(O)C(O)C(O)CO)C(=O)c1c(I)c(C(=O)N(C)CC(O)C(O)C(O)C(O)CO)c(I)c(C(=O)N(C)CC(O)C(O)C(O)C(O)CO)c1I (stereo not drawn) [E, 2,4,6-triiodobenzene-1,3,5-tricarboxylic acid tris(2,3,4,5,6-pentahydroxyhexyl-N-methyl)triamide] | Yes | < 0.001 | < 0.3 | – | – | 34%
CN(C)C(=O)c1c(I)c(C(=O)NCC(O)CO)c(I)c(C(=O)NCC(O)CO)c1I (stereo not drawn) [F, 2,4,6-triiodobenzene-1,3,5-tricarboxylic acid [(N,N-dimethyl)-bis(2,3-dihydroxypropyl)]-triamide] | Yes | 0.171 | 2.7 | 14000 mg/kg | 11000 mg/kg | 50%
CNC(=O)c1c(I)c(C(=O)NC(CO)C(O)CO)c(I)c(C(=O)NC(CO)C(O)CO)c1I (stereo not drawn) [G, 5-N-methylcarbamoyl-2,4,6-triiodoisophthalic acid bis(2,3-dihydroxy-1-hydroxymethylpropyl)diamide] | Yes | 0.065 | 2.8 | – | 19000 mg/kg | 47%
